# Patent publication US10494332B2, “Protein tyrosine phosphatases or SHP2 inhibitors and uses thereof” (Indiana University Research and Technology Corporation, priority 2015, dated 2019)
# “And” between values parts separate entries of the source, which are not always exact repeats. Equal values may be shown once. Read-outs that look alike come from different tables or passages of the source.
# How the values were obtained:
# mPTPB = biological target: T1, mPTPB (Mycobacterium tuberculosis, UniProt I6WXK4); assay: biochemical
# T1 sequence (I6WXK4 1-276): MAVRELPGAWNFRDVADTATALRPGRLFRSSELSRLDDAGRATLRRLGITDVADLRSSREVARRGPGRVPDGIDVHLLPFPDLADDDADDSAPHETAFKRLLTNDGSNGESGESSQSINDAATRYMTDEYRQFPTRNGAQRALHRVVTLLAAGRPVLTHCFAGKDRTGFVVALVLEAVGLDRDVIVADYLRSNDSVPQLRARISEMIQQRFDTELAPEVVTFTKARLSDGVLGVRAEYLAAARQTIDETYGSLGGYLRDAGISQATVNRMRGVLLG
# Laforin = biological target: T2, Laforin (Homo sapiens, UniProt O95278); assay: PTP inhibition assay (pNPP); type: biochemical; details: for IC50: pNPP at Km, pH 7.0, 25° C.
# T2 sequence (O95278 1-331): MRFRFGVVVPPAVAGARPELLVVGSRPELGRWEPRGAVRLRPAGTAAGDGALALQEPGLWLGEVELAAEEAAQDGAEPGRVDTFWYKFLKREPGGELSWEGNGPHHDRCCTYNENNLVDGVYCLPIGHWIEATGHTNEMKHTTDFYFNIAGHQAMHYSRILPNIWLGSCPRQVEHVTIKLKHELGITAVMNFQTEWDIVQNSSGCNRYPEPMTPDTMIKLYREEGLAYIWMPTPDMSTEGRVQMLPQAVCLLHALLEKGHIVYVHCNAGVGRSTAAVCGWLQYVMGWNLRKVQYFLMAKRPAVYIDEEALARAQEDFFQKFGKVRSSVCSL
# YopH = YopH (Yersinia enterocolitica, UniProt P15273); assay: biochemical
# TcPTP = biological target: T3, TcPTP (Homo sapiens, UniProt P17706); assay: PTP inhibition assay (pNPP); type: biochemical
# T3 sequence (P17706 1-415): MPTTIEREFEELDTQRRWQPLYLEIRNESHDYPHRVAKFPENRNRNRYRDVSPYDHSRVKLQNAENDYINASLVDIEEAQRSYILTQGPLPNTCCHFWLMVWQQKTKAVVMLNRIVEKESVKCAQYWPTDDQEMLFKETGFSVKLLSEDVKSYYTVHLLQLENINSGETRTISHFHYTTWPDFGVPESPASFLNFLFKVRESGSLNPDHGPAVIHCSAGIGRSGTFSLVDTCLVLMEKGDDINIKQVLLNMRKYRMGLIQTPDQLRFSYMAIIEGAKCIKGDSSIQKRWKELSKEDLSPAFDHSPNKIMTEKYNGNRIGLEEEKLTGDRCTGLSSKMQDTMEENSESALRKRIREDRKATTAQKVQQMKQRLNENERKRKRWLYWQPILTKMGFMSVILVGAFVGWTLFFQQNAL
# LYP = biological target: T4, LYP (Homo sapiens, UniProt Q9Y2R2); assay: PTP inhibition assay (pNPP); type: biochemical; details: pNPP at Km, pH 7.0, 25° C.
# T4 sequence (Q9Y2R2 1-807): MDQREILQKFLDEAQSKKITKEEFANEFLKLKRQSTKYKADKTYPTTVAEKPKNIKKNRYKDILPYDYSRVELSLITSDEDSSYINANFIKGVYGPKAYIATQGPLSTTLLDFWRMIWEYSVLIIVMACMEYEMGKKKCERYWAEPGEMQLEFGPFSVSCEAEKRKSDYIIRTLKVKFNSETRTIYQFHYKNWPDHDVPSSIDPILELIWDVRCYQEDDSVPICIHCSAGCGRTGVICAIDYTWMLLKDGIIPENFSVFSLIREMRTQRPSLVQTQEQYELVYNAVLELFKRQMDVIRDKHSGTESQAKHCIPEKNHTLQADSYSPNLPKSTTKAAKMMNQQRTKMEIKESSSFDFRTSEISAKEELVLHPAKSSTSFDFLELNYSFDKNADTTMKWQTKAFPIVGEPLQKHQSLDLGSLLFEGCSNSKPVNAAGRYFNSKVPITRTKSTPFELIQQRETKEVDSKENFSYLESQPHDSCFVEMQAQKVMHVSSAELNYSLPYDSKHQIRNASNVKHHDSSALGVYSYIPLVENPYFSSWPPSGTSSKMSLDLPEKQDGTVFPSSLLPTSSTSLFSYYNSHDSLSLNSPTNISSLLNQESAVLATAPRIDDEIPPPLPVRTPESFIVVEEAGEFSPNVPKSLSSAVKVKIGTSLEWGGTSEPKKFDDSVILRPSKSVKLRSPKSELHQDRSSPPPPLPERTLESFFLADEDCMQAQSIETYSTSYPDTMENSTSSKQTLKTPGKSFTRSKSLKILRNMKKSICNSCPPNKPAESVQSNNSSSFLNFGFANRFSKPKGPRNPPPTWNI
# FAP1 = FAP1 (Homo sapiens, UniProt Q12923); assay: PTP inhibition assay (pNPP); type: biochemical
# PTPγ = PTPγ (Homo sapiens, UniProt P23470); assay: PTP inhibition assay (pNPP); type: biochemical
# [1] = Biochemical potency against target (Ic50, nM) mPTPB
# [2] = pNPP at Km, pH 7.0, 25° C., read-out: IC50 TcPTP
# [3] = pNPP at Km, pH 7.0, 25° C., read-out: IC50 FAP1
# Chain of PTPγ (P23470 20-1445): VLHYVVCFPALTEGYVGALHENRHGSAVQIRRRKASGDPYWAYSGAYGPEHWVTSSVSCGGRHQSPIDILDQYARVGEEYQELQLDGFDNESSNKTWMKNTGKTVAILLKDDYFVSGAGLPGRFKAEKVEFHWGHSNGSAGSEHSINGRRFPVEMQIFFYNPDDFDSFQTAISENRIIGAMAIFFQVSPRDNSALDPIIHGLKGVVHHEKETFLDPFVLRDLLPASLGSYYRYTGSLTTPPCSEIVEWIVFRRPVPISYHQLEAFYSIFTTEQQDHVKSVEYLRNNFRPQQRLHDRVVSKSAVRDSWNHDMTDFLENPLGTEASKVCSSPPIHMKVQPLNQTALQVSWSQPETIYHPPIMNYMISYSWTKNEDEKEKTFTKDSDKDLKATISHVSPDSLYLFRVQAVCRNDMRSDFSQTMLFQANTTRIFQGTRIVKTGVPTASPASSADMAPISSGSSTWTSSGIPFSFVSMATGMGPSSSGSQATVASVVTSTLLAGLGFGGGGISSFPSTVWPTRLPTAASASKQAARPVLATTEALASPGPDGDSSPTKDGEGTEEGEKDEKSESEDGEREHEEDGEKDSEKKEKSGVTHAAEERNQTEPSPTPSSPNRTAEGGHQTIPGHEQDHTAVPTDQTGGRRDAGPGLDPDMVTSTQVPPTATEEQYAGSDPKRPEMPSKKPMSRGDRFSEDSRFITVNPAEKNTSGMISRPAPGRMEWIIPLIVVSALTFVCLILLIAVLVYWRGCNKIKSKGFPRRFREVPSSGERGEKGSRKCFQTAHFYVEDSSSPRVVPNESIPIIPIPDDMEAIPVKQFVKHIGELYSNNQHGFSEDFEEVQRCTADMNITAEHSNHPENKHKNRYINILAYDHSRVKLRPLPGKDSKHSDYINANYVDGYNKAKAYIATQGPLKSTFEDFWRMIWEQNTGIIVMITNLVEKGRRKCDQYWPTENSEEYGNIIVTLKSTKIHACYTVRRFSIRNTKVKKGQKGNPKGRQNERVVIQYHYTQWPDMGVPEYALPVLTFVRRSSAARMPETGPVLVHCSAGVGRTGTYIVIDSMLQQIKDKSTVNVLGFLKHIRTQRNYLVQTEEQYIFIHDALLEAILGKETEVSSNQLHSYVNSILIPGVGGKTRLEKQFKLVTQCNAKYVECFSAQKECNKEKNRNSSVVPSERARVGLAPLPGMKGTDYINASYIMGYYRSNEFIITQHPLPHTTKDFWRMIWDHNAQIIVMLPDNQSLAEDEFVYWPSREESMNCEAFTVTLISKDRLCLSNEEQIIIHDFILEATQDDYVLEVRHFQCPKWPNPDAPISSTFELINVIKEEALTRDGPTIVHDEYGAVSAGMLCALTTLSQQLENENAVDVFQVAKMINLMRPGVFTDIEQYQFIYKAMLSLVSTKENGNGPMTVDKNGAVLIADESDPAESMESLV
# Chain of YopH (P15273 whole entry, looked up): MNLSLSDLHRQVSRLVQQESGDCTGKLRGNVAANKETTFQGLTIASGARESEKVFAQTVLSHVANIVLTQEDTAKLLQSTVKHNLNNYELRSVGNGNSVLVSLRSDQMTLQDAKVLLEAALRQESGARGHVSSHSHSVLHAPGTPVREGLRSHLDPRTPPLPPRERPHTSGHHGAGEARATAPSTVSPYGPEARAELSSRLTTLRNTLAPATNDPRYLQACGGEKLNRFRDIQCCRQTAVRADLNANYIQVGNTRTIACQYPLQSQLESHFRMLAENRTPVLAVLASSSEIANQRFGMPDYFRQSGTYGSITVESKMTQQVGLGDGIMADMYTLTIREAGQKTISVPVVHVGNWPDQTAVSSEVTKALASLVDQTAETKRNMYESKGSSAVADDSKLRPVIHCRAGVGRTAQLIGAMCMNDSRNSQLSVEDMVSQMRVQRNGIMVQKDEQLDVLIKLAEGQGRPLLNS
# Chain of FAP1 (Q12923 whole entry): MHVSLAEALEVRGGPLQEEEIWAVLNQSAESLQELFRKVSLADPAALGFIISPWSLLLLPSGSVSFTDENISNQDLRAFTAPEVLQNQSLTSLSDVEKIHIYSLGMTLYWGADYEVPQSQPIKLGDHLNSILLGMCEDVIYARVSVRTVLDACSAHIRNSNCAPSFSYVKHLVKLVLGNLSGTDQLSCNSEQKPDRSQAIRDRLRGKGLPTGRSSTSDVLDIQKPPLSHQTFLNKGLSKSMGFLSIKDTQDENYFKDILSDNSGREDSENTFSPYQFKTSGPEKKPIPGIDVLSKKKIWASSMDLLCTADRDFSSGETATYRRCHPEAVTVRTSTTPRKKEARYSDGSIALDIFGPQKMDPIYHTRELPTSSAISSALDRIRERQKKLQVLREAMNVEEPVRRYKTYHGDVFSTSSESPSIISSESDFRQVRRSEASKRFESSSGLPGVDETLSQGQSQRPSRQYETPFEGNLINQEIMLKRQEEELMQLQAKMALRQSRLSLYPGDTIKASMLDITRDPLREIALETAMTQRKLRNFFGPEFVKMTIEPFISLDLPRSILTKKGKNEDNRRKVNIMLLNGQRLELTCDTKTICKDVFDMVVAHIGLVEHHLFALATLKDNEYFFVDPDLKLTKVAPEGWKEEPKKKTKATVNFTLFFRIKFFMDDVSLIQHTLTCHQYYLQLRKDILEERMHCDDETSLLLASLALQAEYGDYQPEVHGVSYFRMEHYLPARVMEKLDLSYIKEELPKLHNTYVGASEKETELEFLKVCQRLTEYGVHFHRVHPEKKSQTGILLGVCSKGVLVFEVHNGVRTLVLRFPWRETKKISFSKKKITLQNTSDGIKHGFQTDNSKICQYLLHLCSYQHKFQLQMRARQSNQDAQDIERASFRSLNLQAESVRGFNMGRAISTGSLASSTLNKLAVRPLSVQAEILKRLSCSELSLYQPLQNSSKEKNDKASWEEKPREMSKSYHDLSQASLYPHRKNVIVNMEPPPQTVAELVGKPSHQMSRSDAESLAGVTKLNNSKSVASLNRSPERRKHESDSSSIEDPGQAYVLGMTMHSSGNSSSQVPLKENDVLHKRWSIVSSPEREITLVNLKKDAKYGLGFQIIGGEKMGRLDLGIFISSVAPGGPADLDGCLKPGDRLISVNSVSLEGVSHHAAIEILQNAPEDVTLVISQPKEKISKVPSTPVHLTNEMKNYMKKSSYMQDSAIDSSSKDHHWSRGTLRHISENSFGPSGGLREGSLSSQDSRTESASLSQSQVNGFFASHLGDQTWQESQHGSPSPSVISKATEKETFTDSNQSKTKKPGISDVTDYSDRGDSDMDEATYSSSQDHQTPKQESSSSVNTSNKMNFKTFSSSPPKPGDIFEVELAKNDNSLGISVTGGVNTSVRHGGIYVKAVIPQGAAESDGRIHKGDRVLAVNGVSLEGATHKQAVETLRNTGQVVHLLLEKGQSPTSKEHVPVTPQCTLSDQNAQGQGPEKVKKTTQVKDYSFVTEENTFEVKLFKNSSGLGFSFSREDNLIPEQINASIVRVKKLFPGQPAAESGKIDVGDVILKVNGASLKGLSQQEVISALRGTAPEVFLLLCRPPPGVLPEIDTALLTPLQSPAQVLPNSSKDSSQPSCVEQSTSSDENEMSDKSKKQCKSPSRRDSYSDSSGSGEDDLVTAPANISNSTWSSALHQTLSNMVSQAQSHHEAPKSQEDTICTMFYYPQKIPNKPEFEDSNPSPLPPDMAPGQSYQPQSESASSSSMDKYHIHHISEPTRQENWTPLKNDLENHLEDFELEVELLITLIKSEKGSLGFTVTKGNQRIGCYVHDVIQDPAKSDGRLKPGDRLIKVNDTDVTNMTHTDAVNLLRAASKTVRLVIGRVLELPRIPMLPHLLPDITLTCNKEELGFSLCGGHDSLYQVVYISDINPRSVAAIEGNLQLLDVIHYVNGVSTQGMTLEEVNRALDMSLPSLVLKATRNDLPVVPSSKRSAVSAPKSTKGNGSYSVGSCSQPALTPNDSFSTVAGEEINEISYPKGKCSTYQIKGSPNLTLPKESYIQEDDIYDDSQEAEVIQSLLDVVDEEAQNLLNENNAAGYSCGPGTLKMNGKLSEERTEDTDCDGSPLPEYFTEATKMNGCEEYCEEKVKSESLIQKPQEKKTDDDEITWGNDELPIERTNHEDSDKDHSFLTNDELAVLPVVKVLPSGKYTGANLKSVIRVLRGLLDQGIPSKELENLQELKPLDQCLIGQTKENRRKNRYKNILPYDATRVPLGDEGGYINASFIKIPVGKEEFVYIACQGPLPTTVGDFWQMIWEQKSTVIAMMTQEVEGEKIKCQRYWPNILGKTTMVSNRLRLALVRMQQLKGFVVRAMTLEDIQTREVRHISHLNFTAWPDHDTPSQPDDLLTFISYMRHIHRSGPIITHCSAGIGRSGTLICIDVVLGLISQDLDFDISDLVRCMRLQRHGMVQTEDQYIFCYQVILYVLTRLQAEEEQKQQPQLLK
Compound,IC50 (mPTPB; [1]) [nM],IC50 (Laforin; read-out: IC50 Laforin),IC50 (YopH) [µM],IC50 (TcPTP; [2]),IC50 (LYP),IC50 (FAP1; [3]),IC50 (PTPγ) [µM],IC50 (mPTPB; IC50 mPTPB),IC50 (Laforin; IC50 Laforin) [µM],IC50 (TcPTP; IC50 TcPTP) [µM],IC50 (FAP1; IC50 FAP1) [µM],Inhibition of Laforin at 100 μM (Laforin; 100 μM)
O=C(C(c1ccccc1)S(=O)(=O)O)N1CCCC2CCCCC21 (centres unmarked) [Compound L319N53],20,> 200 µM,> 200,> 200 µM,> 200 µM,76 µM,> 200,,,,,
O=C(Nc1ccc(N2CCOCC2)cc1)C(c1ccccc1)S(=O)(=O)O (centres unmarked) [Compound L319M68],,7.47 µM and 7.5 µM,> 200,> 200 µM,> 200 µM,> 200 µM,> 200,5000 nM,,,,
Cc1c(Br)cc(NC(=O)CS(=O)(=O)O)cc1Br,> 3200,,> 100,,> 100 µM,,> 100,3100 nM,> 100,,,
CCCCc1ccc(NC(=O)C(=O)Nc2ccccc2NC(=O)C(c2ccccc2)S(=O)(=O)O)cc1 (centres unmarked) [Compound L319-21-M06],,0.14 µM,,> 50 µM,> 50 µM,> 50 µM,,,,,,
O=C(CS(=O)(=O)O)Nc1ccc2nc(C(F)(F)F)[nH]c2c1,,> 100 µM,> 100,> 100 µM,> 100 µM,> 100 µM,> 100,,,,,
O=C(C(c1ccccc1)S(=O)(=O)O)N1CCC(Cc2ccccc2)CC1 (centres unmarked) [Compound L319N46],60,> 200 µM,> 200,> 200 µM,> 200 µM,> 200 µM,> 200,,,,,
O=C(NCCNC(=O)C(c1ccccc1)S(=O)(=O)O)c1cccc(C(=O)c2ccccc2)c1 (centres unmarked) [Compound L319-02-A60],,9 µM,,> 200 µM,> 200 µM,> 200 µM,,,,,,
O=C(Nc1cccc(OCc2ccccc2)c1)C(=O)Nc1ccccc1NC(=O)C(c1ccccc1)S(=O)(=O)O (centres unmarked) [Compound L319-21-M52],,0.15 µM,,> 50 µM,> 50 µM,> 50 µM,,,,,,
O=C(C(c1ccccc1)S(=O)(=O)O)N1CCC(c2ccc(Cl)c(Cl)c2)CC1 (centres unmarked) [Compound L319N47],9,61 µM,160,160 µM,42 µM,21 µM,180,,,,,
O=C(Nc1ccc(-c2ccccc2)cc1)C(c1ccccc1)S(=O)(=O)O (centres unmarked) [Compound L319N08],,,,,> 200 µM,,,,,> 200,71,
O=C(Nc1ccc2nc(C(F)(F)F)[nH]c2c1)C(c1ccccc1)S(=O)(=O)O (centres unmarked) [Compound L319M54],,4.25 µM,> 200,> 200 µM,> 200 µM,180 µM and > 100 µM,> 200,78 nM,,,,
O=C(CS(=O)(=O)O)Nc1nc2ccc([N+](=O)[O-])cc2s1 [Compound L335N15-07],,> 100 µM,> 100,> 100 µM,> 100 µM,> 100 µM,> 100,,,,,no detectable inhibition
O=C(Nc1nc2ccccc2s1)C(c1ccccc1)S(=O)(=O)O (centres unmarked) [Compound L319N15],,2.1 µM,> 200,> 200 µM,> 200 µM and 190 µM,34 µM,> 200,116 nM,,,,
O=C(CS(=O)(=O)O)Nc1nc2ccccc2s1 [Compound L335N15],,> 100 µM,> 100,> 100 µM,> 100 µM,> 100 µM,> 100,9500 nM,,,,
O=C(Nc1ccc(OCc2ccccc2)c(Cl)c1)C(c1ccccc1)S(=O)(=O)O (centres unmarked) [Compound L319M50],,2.06 µM,,> 100 µM,> 200 µM,73 µM,,,,,,
O=C(Nc1cnc2ccccc2c1)C(c1ccccc1)S(=O)(=O)O (centres unmarked) [Compound L319M88],,8.51 µM and 8.5 µM,> 200,> 200 µM,> 200 µM,> 200 µM,> 200,282 nM,,,,
O=C(Nc1cccc(OCc2ccccc2)c1)C(c1ccccc1)S(=O)(=O)O (centres unmarked) [Compound L319M52],,5.08 µM,> 200,170 µM and > 100 µM,> 200 µM,88 µM,> 200,106 nM,,,,
O=C(CS(=O)(=O)O)Nc1cnc2ccccc2c1,,> 100 µM,> 100,> 100 µM,> 100 µM,> 100 µM,> 100,55000 nM,,,,
Cc1c(Br)cc(NC(=O)C(c2ccccc2)S(=O)(=O)O)cc1Br (centres unmarked) [Compound L319M34],,,> 200,,,,,50 to 200 nM and 55 nM,,> 100,> 100,
O=C(NCc1ccc(NC(=O)C(c2ccccc2)S(=O)(=O)O)cc1)c1ccccc1-c1ccc(C(F)(F)F)cc1 (centres unmarked) [Compound L319-05-A64],,0.8 µM,,96 µM,62 µM,70 µM,,,,,,
